This is an account of results in PubChem BioAssay (NCI).

Several values for one entry are separate records, joined by “and”; a condition that tells them apart may be missing. Equal values may be shown once.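 These data come from cells grown in 96-well plates and exposed to compound for 48 hours at five concentrations. Abbreviation: GI50, concentration required for 50% inhibition of growth. TGI is the concentration that stops growth completely.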

The test has as its system MDA-MB-468 breast. Nature of the test: NCI anticancer screen, dose series, 48 h.
Turning to `C#CC[C@@H]1C[C@]2(C)[C@H]3CC=C4[C@H]5CC(C)(C)CC[C@]5(C(=O)NCCCCN)CC[C@@]4(C)[C@]3(C)CC[C@H]2C(C)(C)[C@H]1OC(C)=O`, the GI50 is 1.71 µM and the TGI stood at 3.27 µM.
Taken in the same sequence, the figures for `CNC(=O)c1cc(N2CCc3cc(NC(=O)Nc4ccc(N5CCOCC5)c(C(F)(F)F)c4)ccc32)ccn1` were 5.22 µM and greater than 33.3 µM.
The like results for `CC(=O)O[C@@H]1CC2C(C)(C)CCCC2(C)C2=C1C(=O)C(C(C)C)=CC2=O` (stereo not given in full) were, in that order, 1.54 µM and 3.81 µM.
Regarding `CC(=C(c1ccc(OCCN(C)C)cc1)c1ccc(OCCN(C)C)cc1)c1ccc(Cl)cc1`, the GI50 is 0.827 µM and the TGI was found to be 3.24 µM.
The like results for `C[C@@H]1COCCN1c1cc(C2(S(C)(=N)=O)CC2)nc(-c2ccnc3[nH]ccc23)n1` (stereo not given in full) were, in that order, 3.92 µM and 25 µM.
Taken in the same sequence, the figures for `CCN(Cc1ccccc1OC)c1ccc(CO)c(Cl)c1` were 0.0372 µM and 0.214 µM.
For the compound `CC(C)(C)c1ccc(S(=O)(=O)N[C@H]2CC[C@H]3[C@@H]4CCc5cc(OS(=O)(=O)O)ccc5[C@H]4CC[C@]23C)cc1`, the GI50 is 2.05 µM and the TGI was determined as 5.59 µM.
The like results for `C[C@@H]1CN(CC(=O)N2CC(C)(C)c3nc(CO)c(Cc4ccc(F)cc4)cc32)[C@@H](CN2CCOC[C@H]2C)CN1` were, in that order, 10.9 µM and 27.9 µM.
The like results for `Oc1ccc(CCCCCCc2ccc(O)cc2)cc1` were, in that order, 12.7 µM and 32.9 µM.
The like results for `CN(CCOc1ccc(C#N)cc1)CCOc1ccc(C#N)cc1` were, in that order, 27.5 µM and greater than 100 µM.
For `ClCc1c(Cl)c(Cl)c(Cl)c(CCl)c1Cl`, the GI50 was 1.57 µM and the TGI is 3.11 µM.
In the case of `CC[C@H](CC#N)OC(=O)N[C@@H](C)c1cccc(NC(=O)Nc2ccc(-c3cnco3)c(OC)c2)c1`, the GI50 is 0.531 µM and the TGI is 18.2 µM.
Taken in the same sequence, the figures for `Cc1nc2sc(C(=O)Nc3ccccc3)c(N)c2cc1C(=O)/C=C/c1ccccc1` were 1.73 µM and 3.82 µM.
Consider `CC(=O)OCC1OC(n2ccc(=O)[nH]c2=O)C(OC(C)=O)C1OC(C)=O` (stereo not given), for which the GI50 is greater than 100 µM and the TGI was greater than 100 µM.
For `CSc1ccc(/C=C2\N=C(c3ccccc3)N(c3nc4ccc(Sc5ccccc5)cc4[nH]3)C2=O)cc1`, the GI50 is 4.44 µM and the TGI amounted to 25.8 µM.
The like results for `CCCCCCCCCCCC[n+]1ccc(CCCCCCCCC)cc1` were, in that order, 0.253 µM and 0.833 µM.
Taken in the same sequence, the figures for `CC(CNC(Cc1ccccc1)c1ccccc1)NC(Cc1ccccc1)c1ccccc1` (stereo not given) were 1.74 µM and 3.67 µM.
Taken in the same sequence, the figures for `COc1cc(Nc2nc(N[C@H]3CCCC[C@@H]3N)nc3cc[nH]c(=O)c23)cc(OC)c1` were 0.26 µM and 0.854 µM.
For `CN(C)c1ccc(/C=C/C=C(/C#N)c2ccccc2)cc1`, the GI50 is 17.5 µM and the TGI was 67.7 µM.
On to `CN(C)C(=S)N=Nc1c(O)[nH]c2ccccc12`, for which the GI50 was 0.482 µM and the TGI was 3.46 µM.
Turning to `O=C(CCl)N1c2ccccc2Sc2c1ccc1ccccc21`, the GI50 was 2.09 µM and the TGI came out at 3.95 µM.
The like results for `CCCCN(Cc1ccc(F)cc1)c1ccc(CO)c(Cl)c1` were, in that order, 0.167 µM and 0.449 µM.
As for `Fc1cccc(COc2ccc(Nc3ncnc4cc(-c5ccc[nH]5)sc34)cc2Cl)c1`, the GI50 was 0.0446 µM and the TGI stood at 0.306 µM.
Turning to `Fc1ccc2[nH]c3c(NCCCN4CCOCC4)ncnc3c2c1`, the GI50 is 20.4 µM and the TGI was greater than 100 µM.
The like results for `C=C1CC[C@@H]2[C@](C)(COC(C)=O)[C@H](OC(C)=O)CC[C@@]2(C)[C@@H]1CC(Nc1ccc(S(=O)(=O)Nc2nccc(C)n2)cc1)C1=CCOC1=O` (stereo not given in full) were, in that order, 1.99 µM and 4.31 µM.
The like results for `Nc1cc(N)c(N)cc1N` were, in that order, 1.8 µM and 4.48 µM.
The like results for `c1cnc2[nH]cc(-c3csc(-c4cn(CCCCN5CCOCC5)c5ccccc45)n3)c2c1` were, in that order, 2.07 µM and 3.99 µM.
Regarding `OCc1ccc(-c2nn(Cc3ccccc3)c3ccccc23)o1`, the GI50 was 0.11 µM and the TGI was 0.287 µM.
On to `c1n[nH]cc1-c1nc2ccc3[nH]ncc3c2c2c1CCCC2`, for which the GI50 is 1.36 µM and the TGI worked out at 3.6 µM.
For `O=C1/C(=C/c2ccc(O)cc2)COc2ccc(-c3ccccc3)cc21`, the GI50 is 3.32 µM and the TGI worked out at 11.4 µM.
Taken in the same sequence, the figures for `CC(=O)Oc1ccccc1C(=O)Nc1cc(C(C)C)ccc1C` were 2.49 µM and 8.38 µM.
For `COc1ccc(-c2cn(-c3ccccc3)c(-c3ccccc3)n2)cc1OC`, the GI50 was 4.9 µM and the TGI was 21.9 µM.
With `COc1cc[nH]c1/C=C1\C(=O)Nc2ccc(F)c(I)c21`, the GI50 was greater than 5.39 µM and the TGI was greater than 25 µM.
For the compound `CC1OC2CC(=O)OC2C2=C1C(=O)c1c(O)c3c(c(O)c1C2=O)C1CC(O)C3(O)C(C)O1` (stereo not given), the GI50 was 0.229 µM and the TGI worked out at 0.618 µM.
For `CN(C)c1ccc2cc(-c3ccccc3F)c(N)nc2c1`, the GI50 is 0.542 µM and the TGI was determined as 12.2 µM.
Turning to `Cn1ccnc1C(=O)/C=C/c1ccc(CC(=O)Nc2ccccc2)cc1`, the GI50 was 1.71 µM and the TGI was determined as 7.11 µM.
`COC(=O)CNC(=O)[C@@H](OC)[C@@H]1Cc2cc3cc(OC4CC(OC5CC(O)C(O)C(C)O5)C(O)C(C)O4)c(C)c(O)c3c(O)c2C(=O)[C@H]1OC1CC(OC2CC(OC3CC(C)(O)C(O)C(C)O3)C(O)C(C)O2)C(O)C(C)O1` (stereo not given in full): the GI50 is 0.162 µM and the TGI was found to be 1.31 µM.
On to `Cc1cc(C(C#N)c2ccc(Cl)cc2)c(Cl)cc1NC(=O)c1cc(I)cc(I)c1O` (stereo not given), for which the GI50 was 4.31 µM and 15.3 µM; the TGI was 18 µM and 30 µM.
Take `C[C@H]1[C@H](C)CC[C@]2(C(=O)O)CC[C@]3(C)C(=CC[C@@H]4[C@@]5(C)C/C(=C/c6cccnc6)[C@H](O)C(C)(C)[C@@H]5CC[C@]43C)[C@H]12`: the GI50 was 19.8 µM and the TGI was 80.1 µM.
The like results for `C=C1C(=O)O[C@H]2[C@H]1CC/C(COC(=O)N1CCC[C@H]1C(=O)Nc1ccc(OC)c(C(N)=O)c1O)=C\CC[C@@]1(C)O[C@@H]21` were, in that order, 1.06 µM and 3.46 µM.
